Assay results reported in PubChem BioAssay AID330 (DTP/NCI, 2004).
Where “and” joins values, the source holds several entries; their conditions need not be identical. Equal values may be shown once. Toxic doses and inconclusive results are not listed. The calls were made as follows: active = survival T/C of 150% or more; inactive = T/C below 125% in these data.

Tested on: P388 leukemia ip, CD2F1 mice, survival T/C
Assay: NCI In Vivo Anticancer Drug Screen. Data for tumor model P388 Leukemia (intraperitoneal) in CD2F1 (CDF1) mice
Settings: endpoint: median survival time, higher = longer survival
Procedure, shortened: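 Mice carrying the transplanted tumor received test compound or vehicle. Survival was recorded in each group, and the value is the treated-group measurement divided by that of the vehicle-treated control group.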

[1] = dose: 50.0 mg/kg/injection, schedule: Q01DX005 (ip), vehicle: Klucel (hydroxypropylcellulose) (HPC)
[2] = dose: 100.0 mg/kg/injection, schedule: Q01DX005 (ip), vehicle: Klucel (hydroxypropylcellulose) (HPC)
[3] = dose: 100.0 mg/kg/injection, schedule: Q01DX001 (ip), vehicle: saline with Tween-80
[4] = dose: 200.0 mg/kg/injection, schedule: Q01DX001 (ip), vehicle: saline with Tween-80
[5] = dose: 400.0 mg/kg/injection, schedule: Q01DX001 (ip), vehicle: saline with Tween-80
[6] = dose: 50.0 mg/kg/injection, schedule: Q04DX003 (ip), vehicle: saline with Tween-80
[7] = dose: 100.0 mg/kg/injection, schedule: Q04DX003 (ip), vehicle: saline with Tween-80
[8] = dose: 200.0 mg/kg/injection, schedule: Q04DX003 (ip), vehicle: saline with Tween-80
[9] = dose: 50.0 mg/kg/injection, schedule: Q01DX001 (ip), vehicle: Klucel (hydroxypropylcellulose) (HPC)
[10] = dose: 100.0 mg/kg/injection, schedule: Q01DX001 (ip), vehicle: Klucel (hydroxypropylcellulose) (HPC)
[11] = dose: 50.0 mg/kg/injection, schedule: Q01DX005 (ip), vehicle: saline with Tween-80
[12] = dose: 100.0 mg/kg/injection, schedule: Q01DX005 (ip), vehicle: saline with Tween-80
[13] = dose: 200.0 mg/kg/injection, schedule: Q01DX005 (ip), vehicle: saline with Tween-80
[14] = dose: 200.0 mg/kg/injection, schedule: Q01DX005 (ip), vehicle: Klucel (hydroxypropylcellulose) (HPC)
[15] = dose: 6.25 mg/kg/injection, schedule: Q01DX009 (ip), vehicle: Klucel (hydroxypropylcellulose) (HPC)
[16] = dose: 12.5 mg/kg/injection, schedule: Q01DX009 (ip), vehicle: Klucel (hydroxypropylcellulose) (HPC)
[17] = dose: 25.0 mg/kg/injection, schedule: Q01DX009 (ip), vehicle: saline with Tween-80
[18] = dose: 50.0 mg/kg/injection, schedule: Q01DX009 (ip), vehicle: saline with Tween-80
[19] = dose: 100.0 mg/kg/injection, schedule: Q01DX009 (ip), vehicle: saline with Tween-80
[20] = dose: 100.0 mg/kg/injection, schedule: Q01DX009 (ip), vehicle: Klucel (hydroxypropylcellulose) (HPC)

Measured: T/C

O=[N+]([O-])c1cc2no[n+]([O-])c2cc1N1CCOCC1
inactive: dose: 3.75 mg/kg/injection, schedule: Q01DX009 (ip), vehicle: saline 112 % of control and 88 % of control | dose: 7.5 mg/kg/injection, schedule: Q01DX009 (ip), vehicle: saline 101 % of control and 92 % of control | dose: 15.0 mg/kg/injection, schedule: Q01DX009 (ip), vehicle: saline 91 % of control and 97 % of control | dose: 30.0 mg/kg/injection, schedule: Q01DX009 (ip), vehicle: saline 103 % of control and 96 % of control

[CH3][Sn]([CH3])([N](c1ccccn1)c1ccccn1)[N](c1ccccn1)c1ccccn1
inactive: [1] 111 % of control | [2] 118 % of control

Cc1cccc(OCC(O)CN2CC2)c1 (configuration not stated)
inactive: [3] 112 % of control | [4] 120 % of control | [5] 103 % of control

Cc1ccccc1Nc1n[nH]c(=S)s1
inactive: [6] 95 % of control | [7] 100 % of control | [8] 95 % of control

O/C(=C(\c1ccccc1)n1ncc2c1OCCC2)c1ccccc1
inactive: [9] 94 % of control | [10] 95 % of control

CC(C)(C(=S)[S-])[P+](c1ccccc1)(c1ccccc1)c1ccccc1
inactive: dose: 60.0 mg/kg/injection, schedule: Q01DX005 (ip), vehicle: Klucel (hydroxypropylcellulose) (HPC) 96 % of control | dose: 120.0 mg/kg/injection, schedule: Q01DX005 (ip), vehicle: Klucel (hydroxypropylcellulose) (HPC) 92 % of control | dose: 240.0 mg/kg/injection, schedule: Q01DX005 (ip), vehicle: Klucel (hydroxypropylcellulose) (HPC) 88 % of control

CN(C)CCC(=O)Nc1nc(-c2ccc(Cl)cc2)cs1
inactive: [11] 102 % of control | [12] 92 % of control | [13] 96 % of control

O=C(N/N=C/c1ccccc1O)C(=O)Nc1ccc(F)cc1
inactive: [1] 94 % of control | [2] 92 % of control | [14] 87 % of control

Cc1ccc(S(=O)(=O)N2CCN(S(=O)(=O)c3ccc(C)cc3)COC2)cc1
inactive: dose: 60.0 mg/kg/injection, schedule: Q01DX005 (ip), vehicle: saline with Tween-80 102 % of control | dose: 120.0 mg/kg/injection, schedule: Q01DX005 (ip), vehicle: saline with Tween-80 97 % of control | dose: 240.0 mg/kg/injection, schedule: Q01DX005 (ip), vehicle: saline with Tween-80 104 % of control

CCOC(=O)/C(C#N)=C/C=C1/C=CC=CN1N=C(SC)SC
inactive: [3] 95 % of control | [4] 86 % of control | [5] 87 % of control

O=c1cc[nH]c(=S)[nH]1.[Cu+2]
inactive: dose: 1.56 mg/kg/injection, schedule: Q01DX009 (ip), vehicle: DMSO 100 % of control | dose: 3.12 mg/kg/injection, schedule: Q01DX009 (ip), vehicle: DMSO 99 % of control | dose: 6.25 mg/kg/injection, schedule: Q01DX009 (ip), vehicle: DMSO 86 % of control | dose: 12.5 mg/kg/injection, schedule: Q01DX009 (ip), vehicle: DMSO 100 % of control

COc1ccc2c(c1OC)C(O)(Cc1ccccc1)OC2C1c2c(cc3c(c2OC)OCO3)CCN1C (configuration not stated)
inactive: [1] 106 % of control | [2] 104 % of control | [14] 95 % of control

Cn1c(=O)c2c(nc(NCC[N+](C)(C)Cc3ccc(Cl)cc3)n2C)n(C)c1=O
inactive: [15] 93 % of control | [16] 101 % of control | dose: 25.0 mg/kg/injection, schedule: Q01DX009 (ip), vehicle: Klucel (hydroxypropylcellulose) (HPC) 113 % of control and 94 % of control

COP(=O)(O)Oc1ccccc1 (tested in a mixture with another compound)
inactive: dose: 50.0 mg/kg/injection, schedule: Q01DX009 (ip), vehicle: saline 101 % of control | dose: 100.0 mg/kg/injection, schedule: Q01DX009 (ip), vehicle: saline 100 % of control | dose: 200.0 mg/kg/injection, schedule: Q01DX009 (ip), vehicle: saline 99 % of control

CCCCCCCCCCCOC(=O)c1ccc(O)cc1
inactive: dose: 12.5 mg/kg/injection, schedule: Q01DX009 (ip), vehicle: saline with Tween-80 98 % of control | [17] 102 % of control | [18] 105 % of control and 106 % of control | [19] 103 % of control

CC1CCN(C(=O)c2cc(Nc3ccnc4cc(Cl)ccc34)ccc2O)CC1
inactive: dose: 100.0 mg/kg/injection, schedule: Q04DX002 (ip), vehicle: saline with Tween-80 99 % of control | dose: 200.0 mg/kg/injection, schedule: Q04DX002 (ip), vehicle: saline with Tween-80 99 % of control | dose: 400.0 mg/kg/injection, schedule: Q04DX002 (ip), vehicle: saline with Tween-80 89 % of control

CN(C)c1ncnc2c1ccn2CC(O)CO (configuration not stated)
inactive: dose: 50.0 mg/kg/injection, schedule: Q01DX005 (ip), vehicle: distilled water + alcohol 109 % of control | dose: 100.0 mg/kg/injection, schedule: Q01DX005 (ip), vehicle: distilled water + alcohol 101 % of control | dose: 200.0 mg/kg/injection, schedule: Q01DX005 (ip), vehicle: distilled water + alcohol 97 % of control

O=C(NCc1ccncc1)c1ccccc1
inactive: dose: 100.0 mg/kg/injection, schedule: Q04DX003 (ip), vehicle: saline 104 % of control | dose: 200.0 mg/kg/injection, schedule: Q04DX003 (ip), vehicle: saline 100 % of control | dose: 400.0 mg/kg/injection, schedule: Q04DX003 (ip), vehicle: saline 106 % of control

CS(=O)(=O)c1snc(N)c1C#N
inactive: dose: 12.5 mg/kg/injection, schedule: Q01DX005 (ip), vehicle: saline with Tween-80 106 % of control | dose: 25.0 mg/kg/injection, schedule: Q01DX005 (ip), vehicle: saline with Tween-80 101 % of control | [11] 102 % of control

O=c1c2sc3ccccc3c2ncn1/N=C/c1cccc([N+](=O)[O-])c1
inactive: [1] 99 % of control | [2] 92 % of control | [14] 91 % of control

Cn1c2ccccc2c(=S)c2cc(NC(=O)CCCCC(=O)Nc3ccc4c(c3)c(=S)c3ccccc3n4C)ccc21
inactive: [11] 110 % of control | [12] 98 % of control | [13] 104 % of control

Cc1cc(N(CCOS(C)(=O)=O)CCOS(C)(=O)=O)ccc1C=Nc1ccc(-c2csc(-c3ccccc3)n2)c(Cl)c1
inactive: [15] 110 % of control | [16] 122 % of control | [20] 98 % of control and 87 % of control

O=C(Nc1cnns1)c1ccccc1
inactive: dose: 12.5 mg/kg/injection, schedule: Q01DX009 (ip), vehicle: other 105 % of control | dose: 25.0 mg/kg/injection, schedule: Q01DX009 (ip), vehicle: other 99 % of control | dose: 50.0 mg/kg/injection, schedule: Q01DX009 (ip), vehicle: other 102 % of control | dose: 100.0 mg/kg/injection, schedule: Q01DX009 (ip), vehicle: other 105 % of control | dose: 200.0 mg/kg/injection, schedule: Q01DX009 (ip), vehicle: other 89 % of control

Cc1ccc(S(=O)(=O)Oc2ccc3c(/C=C/[N+](=O)[O-])cn(C)c3c2)cc1
inactive: [9] 90 % of control | [10] 86 % of control | dose: 200.0 mg/kg/injection, schedule: Q01DX001 (ip), vehicle: Klucel (hydroxypropylcellulose) (HPC) 101 % of control

O=C(/C=C/c1ccc(O)cc1)c1ccccc1
inactive: [6] 105 % of control and 94 % of control | [7] 98 % of control and 105 % of control | [8] 103 % of control and 105 % of control | dose: 400.0 mg/kg/injection, schedule: Q04DX003 (ip), vehicle: saline with Tween-80 105 % of control

N=Nc1c(O)[nH]c2ccccc12
inactive: dose: 50.0 mg/kg/injection, schedule: Q01DX009 (ip), vehicle: Klucel (hydroxypropylcellulose) (HPC) 89 % of control | [20] 89 % of control | dose: 200.0 mg/kg/injection, schedule: Q01DX009 (ip), vehicle: Klucel (hydroxypropylcellulose) (HPC) 95 % of control | dose: 400.0 mg/kg/injection, schedule: Q01DX009 (ip), vehicle: Klucel (hydroxypropylcellulose) (HPC) 100 % of control

CC12CC3(C)CC(C)(C1)CC(C(NC(C)(C)C)C(=O)O)(C2)C3 (configuration not stated)
inactive: [17] 100 % of control | [18] 100 % of control and 105 % of control and 122 % of control | [19] 99 % of control and 110 % of control and 96 % of control | dose: 200.0 mg/kg/injection, schedule: Q01DX009 (ip), vehicle: saline with Tween-80 99 % of control
